# From patent US20240139280A1, “USE OF HIF-1-ALPHA INHIBITORS IN CANCER IMMUNOTHERAPY” (ONCOC4, INC., priority 2021, published 2024)
# Assays:
# intestinal tissues = assay: Ipilimumab-induced GI-irAE in human CTLA4 knockin mice (FITC-dextran, histology, PD-L1)
# Procedure: Experimental design for GI-irAE induction by Ipilimumab, with or without additional therapies. 10-day old CTLA4h/h mice received 0.1 mg of Ipilimumab on days 10, 13, 16, and 19 after birth to induce the GI-irAE phenotype, measured by FITC-dextran assay on day 32. On day 33, the mice were sacrificed for histological and immunofluorescent analysis of intestinal tissues, and flow cytometry, etc. […] Aggregate data from 4 experiments are presented. […] Starting on day 10 after birth, the mice began receiving treatment with vehicle (n=33), echinomycin (n=27), Ipilimumab (n=33), Ipilimumab+echinomycin (n=26), Ipilimumab+RMP1-14 (n=27), Ipilimumab+echinomycin+RMP1-14 (n=28), or Ipilimumab+echinomycin+XMG1.2 (n=15). Echinomycin (10 μg/kg), Ipilimumab (0.1 mg/mouse/injection), RMP1-14 (0.2 mg/mouse/injection), and XMG1.2 (0.2 mg/mouse/injection). Vehicle or echinomycin (10 μg/kg) were given once every three days for 8 doses, and mAbs (0.1 mg/mo. for Ipilimumab; 0.2 mg/mo. for RMP1-14 and XMG1.2) once every three days for 4 doses. Data collection was performed as described in (FIG. 8A). […] Serum FITC-dextran intensity shown as mean±SEM for individual mice pooled from 3 independent experiments. […] Statistics were determined by unpaired t tests (two-tailed) for group means. […] Representative H&E images from intestines of Ipilimumab-treated mice additionally treated with echinomycin (panel i), RMP1-14 (panels ii-iv), echinomycin+RMP1-14 (panels v-vi), or echinomycin+XMG1.2 (panels vii-viii). […] Representative immunofluorescence images showing relative expression of PD-L1 in jejunum of mice from different treatment groups.
# Therefore, we used intestinal permeability to orally administrated FITC-dextran and histology as the readout for irAE (FIG. 8A).
# [1] = test system: PD-L1 expression in E0771 cells; assay type: cell-based, murine
# MC38 tumor = MC38 tumor growth in mice; assay type: in vivo; settings: echinomycin 0.15 mg/kg
# Procedure: FIGS. 3A-D show the therapeutic effects of echinomycin on tumor growth in immunodeficient and immunocompetent mice. FIG. 3A. Experimental design. Three murine tumor lines were tested: 4T1, E0771, or MC38. For each, immunodeficient and immunocompetent mice were inoculated (day 0), and treatment was initiated with control liposomes (vehicle) or echinomycin liposomes (LEM) on day 6, indicated by arrows in FIGS. 3B-3D. The kinetics of tumor growth were compared to deduce the role of adaptive immunity in the therapeutic effects of echinomycin. FIG. 3B. 4T1 cells (1×10^6) were transplanted into mammary fat pad of NSG and BALB/c mice, which received vehicle or echinomycin (0.15 mg/kg) (arrows). Mean tumor volumes±SEM are shown for one of two independent experiments (n=10/group). FIG. 3C. Kinetics of E0771 tumor growth. E0771 cells (0.7×10^6) were transplanted into mammary fat pad of NSG and C57BL/6 mice, which received vehicle or echinomycin (0.25 mg/kg) (arrows). Mean tumor volumes±SEM are shown for one of two independent experiments (n=5/group). FIG. 3D. Kinetics of MC38 tumor growth. […]
# Tumor Models The details of each experiment are specified in the figure legends. […] Tumor volumes were calculated and reported based on the formula […], where a is the longer diameter, and b is the shorter diameter. […]
# [2] = test system: PD-L1 in 4T1, E0771, MC38 tumors; assay: Intratumoral PD-L1 immunofluorescence in engrafted 4T1, E0771 and MC38 tumors; assay type: in vivo, mice; settings: LEM 0.25 mg/kg every other day for 5 doses; two days after final dose
smiles,measurement,setting,value
"CSC1SC[C@H]2C(=O)N(C)[C@@H](C(C)C)C(=O)OC[C@@H](NC(=O)c3cnc4ccccc4n3)C(=O)N[C@@H](C)C(=O)N(C)[C@@H]1C(=O)N(C)[C@@H](C(C)C)C(=O)OC[C@@H](NC(=O)c1cnc3ccccc3n1)C(=O)N[C@@H](C)C(=O)N2C (stereo in doubt) [echinomycin, N,N′-(2,4,12,15,17,25-hexamethyl-11,24-bis(1-methylethyl)-27-(methylthio)-3,6,10,13,16,19,23,26-octaoxo-9,22-dioxa-28-thia-2,5,12,15,18,25-hexaazabicyclo(12.12.3)nonacosane-7,20-diyl)bis(2-quinoxalinecarboxamide)]",PD-L1 expression in the intestines,"intestinal tissues; Ipilimumab 0.1 mg/mouse/injection, echinomycin 10 μg/kg added to Ipilimumab",enhanced PD-L1 expression
same,Ipilimumab-induced intestinal leakage (FITC-dextran),intestinal tissues; agent added to Ipilimumab (anti-PD-1 added to Ipilimumab+echinomycin),protected against Ipilimumab-induced intestinal leakage
same,H&E findings in intestines of Ipilimumab-treated mice additionally treated with the agent,"intestinal tissues; representative images, FIG. 8F panels",normal pathology
same,PD-L1 expression in sh-Hif1α E0771 cells,[1],abrogated the ability for echinomycin to decrease PD-L1 protein
same,PD-L1 protein,"[1]; E0771 cells, normoxia, echinomycin 0.45 nM, 48 hours",reduced PD-L1 protein
same,PD-L1 expression in sh-Scr E0771 cells,"[1]; scrambled shRNA, echinomycin 1.35 nM",inhibitory effect of echinomycin on PD-L1 expression was preserved
same,"MC38 tumor growth, combination study","MC38 tumor; C57BL/6, mAbs 0.2 mg/mouse/injection, vs vehicle",significant inhibition of tumor growth
same,MC38 tumor growth,MC38 tumor; C57BL/6 vs NSG,all therapeutic effects required immune competence
same,intratumoral PD-L1 expression (immunofluorescence),[2],marked reduction in PD-L1 expression
